The subject of data set [1] is DosRST pathway, CDC1551 (hspX′::GFP) reporter strain. Put plainly: microbe, parasite or virus in culture. It counts as cell-based.
Data set [2] has as its system DosR-regulated genes hspX and tgs1. The format is cell-based. Particulars: 2 h induction.
The target in a further data set is DosR (Mycobacterium tuberculosis, UniProt P9WMF9). Put plainly: Electrophoretic mobility shift assay (EMSA), DosR binding of hspX promoter DNA. To be noted: 1-80 μM, 2 μM DosR. Background: In EMSA bound probe runs differently from free probe, usually more slowly.
DosR, sequence (P9WMF9 whole entry, looked up): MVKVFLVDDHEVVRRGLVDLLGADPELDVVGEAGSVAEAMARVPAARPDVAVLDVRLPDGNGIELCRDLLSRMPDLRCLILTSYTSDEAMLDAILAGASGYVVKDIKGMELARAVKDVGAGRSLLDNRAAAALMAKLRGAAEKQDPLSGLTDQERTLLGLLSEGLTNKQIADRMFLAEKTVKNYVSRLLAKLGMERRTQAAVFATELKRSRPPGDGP
The mark [3] stands for this setting: Mycobacterium tuberculosis, 144 h, CDC1551 (hspX′::GFP), 6 d, read-out: EC50 of DosRST-dependent GFP fluorescence inhibition (FI).
[4] abbreviates: Mycobacterium tuberculosis, Table 3, HC104 series, whole cell assay, read-out: EC50.

Values after ≈ are worked out from the molar mass of the structure shown. “Also recorded” adds a separate entry of the source. Read-outs that look alike come from different tables or passages of the source.

For `O=C(Nc1ccc(Cl)c(Cl)c1)Nc1ccno1` [MSU-39452, 1-(3,4-dichlorophenyl)-3-(1,2-oxazol-5-yl)urea], the melting point was 164 °C.

For the molecule `O=C(Nc1ccon1)Nc1ccc(Cl)cc1Cl` [HC106C], in data set [1], the “activity in the whole cell Mtb reporter assay” value (“activity” below) is recorded as “no activity”.

Take `O=C(Nc1ccno1)Nc1ccno1` [MSU-39444, 1,3-bis(1,2-oxazol-5-yl)urea]: the EC50 was ~2000 nM in data set [1] (CDC1551 (hspX′::GFP), 6 d, read-out: EC50 of DosRST-dependent GFP fluorescence inhibition (FI)) and 1700 nM in data set [1] (setting [3]).

With `O=C(Nc1cccc(Cl)c1)Nc1ccno1` [MSU-39445, 1-(3-chlorophenyl)-3-(1,2-oxazol-5-yl)urea], the melting point is 159 °C (dec.). Moreover, the EC50 in data set [1] (setting [3]) was 750 nM. In addition, in the data set “physchem”, the solubility is > 100 µM.

`O=C(Nc1ccc(Cl)cn1)Nc1ccno1` [MSU-39450, 1-(5-chloropyridin-2-yl)-3-(1,2-oxazol-5-yl)urea] showed a melting point of 122 to 123 °C.

The molecule `CC(C)(C)c1ccc(NC(=O)Nc2ccno2)cc1` [MSU-41442, 1-(4-tert-butylphenyl)-3-(1,2-oxazol-5-yl)urea] returned a melting point of 163 °C. Also, the solubility in “physchem” was > 100 µM.

For the molecule `O=C(Nc1cccc(Br)c1)Nc1ccno1` [MSU-42003, 1-(3-bromophenyl)-3-(1,2-oxazol-5-yl)urea], the melting point was 157 °C.

`O=C1O[C@H]([C@@H](O)CO)C(O)=C1O` [vitamin C, reference compound]: in data set [2], the “induction of hspX by the inducer” value is listed as 2162 fold and the “induction of tgs1 by the inducer” value is 58 fold.

Consider `O=C(O)CCCN1C(=O)c2cccc3cccc(c23)C1=O` [virstatin, reference compound], for which the “activity” value in data set [1] is reported as “did not have any impact on DosRST signaling; also recorded: nor did virstatin inhibit the DosRST pathway; also recorded: not effect”. Besides, the “impact on DosR binding of DNA (words)” value is “no impact on DosR binding of DNA” on DosR and “did not impact DosR binding of promoter DNA” on DosR (listed as Virstatin).

The molecule `O=C(Nc1ccno1)NC1CCCCC1` [MSU-42002, 1-cyclohexyl-3-(1,2-oxazol-5-yl)urea] showed a melting point of 180 °C.

The molecule `O=C(Nc1ccc(-c2ccccc2)cc1)Nc1ccno1` [MSU-41443, 1-{[1,1′-biphenyl]-4-yl}-3-(1,2-oxazol-5-yl)urea] displayed a melting point of 193 °C. Besides, the concentration in solution in “physchem” (solubility) came to 14 µM (≈ 3.91 µg/mL).

With `O=C(Nc1ccno1)NC1CCCC1` [MSU-41546, 1-cyclopentyl-3-(1,2-oxazol-5-yl)urea], the melting point was 182 °C.

Turning to `O=C(NCCc1ccccc1)Nc1ccno1` [MSU-42004, 3-(1,2-oxazol-5-yl)-1-(2-phenylethyl)urea], the melting point was found to be 165 °C.

As to `CN(C)CCCN1C(=O)c2cccc3cccc(c23)C1=O` [HC104B], the “activity” value in data set [1] is “complete loss of activity”. The EC50 in data set [1] (setting [4]) was > 200000 nM.

Regarding `CN1C(=O)c2cccc3c(Br)ccc(c23)C1=O` [HC104G], the “fold less active than HC104A” value in data set [1] is reported as ~10 fold; in data set [1] (whole cell assay) it was ~5 fold. Further, the EC50 in data set [1] (setting [4]) amounted to 43800 nM.

As for `NCCN(CCN)/[N+]([O-])=N/O` [DETA-NONOate, reference compound], in data set [2], the “induction of hspX by the inducer” value is reported as 3024 fold and the “induction of tgs1 by the inducer” value came to 113 fold.

Regarding `O=C(Nc1ccc(Cl)nc1)Nc1ccno1` [MSU-39448, 1-(6-chloropyridin-3-yl)-3-(1,2-oxazol-5-yl)urea], the melting point lay within 158 to 159 °C.

Turning to `O=C(Nc1ccc(COc2ccccc2)cc1)Nc1ccno1` [MSU-41545, 3-(1,2-oxazol-5-yl)-1-[4-(phenoxymethyl)phenyl]urea], the melting point was found to be 164 °C.

Regarding `CC(C)CNC(=O)Nc1ccno1` [MSU-41542, 3-(2-methylpropyl)-1-(1,2-oxazol-5-yl)urea], the melting point was found to be 187 °C.

With `O=C(Nc1ccccc1)Nc1ccno1` [MSU-33189, 3-(1,2-oxazol-5-yl)-1-phenylurea], the EC50 in data set [1] (setting [3]) is 630 nM.

In turn, `O=C(NCc1ccccc1)Nc1ccno1` [MSU-41462, 1-benzyl-3-(1,2-oxazol-5-yl)urea] gave a melting point of 128 to 130 °C.

As usually defined, the melting point is the temperature, or range, at which the solid turns liquid. By EC50 is commonly meant the concentration giving half of the maximal effect. By solubility is commonly meant how much of the substance goes into solution per volume. Low readings indicate little dissolved substance, high ones much dissolved substance.

The values above are taken from patent US11617740B2, “Chemical inhibitors of Mycobacterium tuberculosis DosRST signaling and persistence” (priority 2017, dated 2023).
